system: ATF4 luciferase reporter in HEK293T cells; assay: ATF4-Luc assay (in vitro model of VWMD); format: cell-based, human; conditions: Homo sapiens, HEK-293T, 7 h, HEK293T cells carrying the ATF4 luciferase reporter, 1 μg/mL tunicamycin, One Glo luminescence
Outline: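 Tunicamycin (1 μg/mL) stress with co-added compound for 7 hours in HEK293T cells stably carrying an ATF4 5′-UTR–luciferase reporter. EC50 values come from the luminescent signal (One Glo).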

Row | SMILES | EC50
1 | O=C(NC12CC(OCC(=O)N3CC(OC(F)(F)F)C3)(C1)C2)[C@H]1C[C@@H](O)c2cc(Cl)ccc2O1 [Compound 333, (2R,4R)-6-chloro-4-hydroxy-N-(3-{2-oxo-2-[3-(trifluoromethoxy)azetidin-1-yl]ethoxy}bicyclo[1.1.1]pentan-1-yl)-3,4-dihydro-2H-1-benzopyran-2-carboxamide] | 50 to 250 nM
2 | O=C(NC12CC(n3cc(-c4ccc(C(F)F)cn4)cn3)(C1)C2)[C@H]1C[C@@H](O)c2cc(Cl)ccc2O1 [Compound 568, (2R,4R)-6-chloro-N-(3-{4-[5-(difluoromethyl)pyridin-2-yl]-1H-pyrazol-1-yl}bicyclo[1.1.1]pentan-1-yl)-4-hydroxy-3,4-dihydro-2H-1-benzopyran-2-carboxamide] | < 10 nM
3 | COc1ncc(-c2cnn(C34CC(NC(=O)[C@@H]5C[C@@H](O)c6cc(Cl)ccc6O5)(C3)C4)c2)cn1 [Compound 396, (2S,4R)-6-chloro-4-hydroxy-N-{3-[4-(2-methoxypyrimidin-5-yl)-1H-pyrazol-1-yl]bicyclo[1.1.1]pentan-1-yl}-3,4-dihydro-2H-1-benzopyran-2-carboxamide] | 50 to 250 nM
4 | O=C(CO[C@H]1C[C@@H](OC(F)(F)F)C1)N[C@H]1C[C@H]2C[C@@H]1C[C@@H]2NC(=O)[C@@H]1C[C@@H](O)c2cc(Cl)ccc2O1 [Compound 388, (2S,4R)-6-chloro-4-hydroxy-N-[(1R,2S,4R,5S)-5-(2-{[cis-3-(trifluoromethoxy)cyclobutyl]oxy}acetamido)bicyclo[2.2.1]heptan-2-yl]-3,4-dihydro-2H-1-benzopyran-2-carboxamide] | 50 to 250 nM
5 | O=C(NC12CCC(n3cc(OCCOC(F)(F)F)cn3)(C1)C2)[C@H]1C[C@@H](O)c2cc(Cl)c(F)cc2O1 [Compound 590, (2R,4R)-6-chloro-7-fluoro-4-hydroxy-N-(4-{4-[2-(trifluoromethoxy)ethoxy]-1H-pyrazol-1-yl}bicyclo[2.1.1]hexan-1-yl)-3,4-dihydro-2H-1-benzopyran-2-carboxamide] | 10 to 50 nM
6 | O=C(NC12CCC(n3cc(OCCCOC(F)(F)F)cn3)(C1)C2)[C@H]1C[C@@H](O)c2cc(Cl)ccc2O1 [Compound 628, (2R,4R)-6-chloro-4-hydroxy-N-(4-{4-[3-(trifluoromethoxy)propoxy]-1H-pyrazol-1-yl}bicyclo[2.1.1]hexan-1-yl)-3,4-dihydro-2H-1-benzopyran-2-carboxamide] | 50 to 250 nM
7 | O=C(NC12CC(n3cc(OCCOCC(F)(F)F)cn3)(C1)C2)[C@H]1C[C@@H](O)c2cc(Cl)ccc2O1 [Compound 425, (2R,4R)-6-chloro-4-hydroxy-N-(3-{4-[2-(2,2,2-trifluoroethoxy)ethoxy]-1H-pyrazol-1-yl}bicyclo[1.1.1]pentan-1-yl)-3,4-dihydro-2H-1-benzopyran-2-carboxamide] | < 10 nM
8 | O=C(NC12CC(n3cc(-c4ccc(OC(F)(F)F)cn4)cn3)(C1)C2)[C@H]1C[C@@H](O)c2cc(Cl)c(Cl)cc2O1 [Compound 566, (2R,4R)-6,7-dichloro-4-hydroxy-N-(3-{4-[5-(trifluoromethoxy)pyridin-2-yl]-1H-pyrazol-1-yl}bicyclo[1.1.1]pentan-1-yl)-3,4-dihydro-2H-1-benzopyran-2-carboxamide] | < 10 nM
9 | O=C(NC12CC(n3cc(-c4ccc(OC(F)(F)F)cn4)cn3)(C1)C2)[C@H]1C[C@H](O)c2cc(C(F)(F)F)ccc2O1 [Compound 551, (2R,4S)-4-hydroxy-N-(3-{4-[5-(trifluoromethoxy)pyridin-2-yl]-1H-pyrazol-1-yl}bicyclo[1.1.1]pentan-1-yl)-6-(trifluoromethyl)-3,4-dihydro-2H-1-benzopyran-2-carboxamide] | < 10 nM
10 | O=C(NC12CC(n3cc(-c4ccc(C(F)(F)F)cn4)cn3)(C1)C2)[C@H]1CNc2cc(Cl)ccc2O1 [Compound 572, (2R)-6-chloro-N-(3-{4-[5-(trifluoromethyl)pyridin-2-yl]-1H-pyrazol-1-yl}bicyclo[1.1.1]pentan-1-yl)-3,4-dihydro-2H-1,4-benzoxazine-2-carboxamide] | < 10 nM

From patent US20250145594A1, “MODULATORS OF THE INTEGRATED STRESS PATHWAY” (Calico Life Sciences LLC, priority 2020, published 2025)
